Reference: patent publication US12157741B2, “Macrocyclic inhibitors of DYRK1A” (DANA-FARBER CANCER INSTITUTE, INC., priority 2018, dated 2024)
Like-named read-outs stand apart in the source and are kept apart here.

Experiments:
various enzymes [1] = molecular target: various enzymes (Homo sapiens, UniProt P43405); settings: SYK; 1 uM
Experimental: (§1) Ambit profiling from Eurofins (formerly Discoverx) was conducted in accordance with the manufacturer's instructions.

various enzymes [2] = molecular target: T1, various enzymes (Homo sapiens, UniProt Q08881); settings: ITK; 1 uM
T1 sequence (Q08881 1-620): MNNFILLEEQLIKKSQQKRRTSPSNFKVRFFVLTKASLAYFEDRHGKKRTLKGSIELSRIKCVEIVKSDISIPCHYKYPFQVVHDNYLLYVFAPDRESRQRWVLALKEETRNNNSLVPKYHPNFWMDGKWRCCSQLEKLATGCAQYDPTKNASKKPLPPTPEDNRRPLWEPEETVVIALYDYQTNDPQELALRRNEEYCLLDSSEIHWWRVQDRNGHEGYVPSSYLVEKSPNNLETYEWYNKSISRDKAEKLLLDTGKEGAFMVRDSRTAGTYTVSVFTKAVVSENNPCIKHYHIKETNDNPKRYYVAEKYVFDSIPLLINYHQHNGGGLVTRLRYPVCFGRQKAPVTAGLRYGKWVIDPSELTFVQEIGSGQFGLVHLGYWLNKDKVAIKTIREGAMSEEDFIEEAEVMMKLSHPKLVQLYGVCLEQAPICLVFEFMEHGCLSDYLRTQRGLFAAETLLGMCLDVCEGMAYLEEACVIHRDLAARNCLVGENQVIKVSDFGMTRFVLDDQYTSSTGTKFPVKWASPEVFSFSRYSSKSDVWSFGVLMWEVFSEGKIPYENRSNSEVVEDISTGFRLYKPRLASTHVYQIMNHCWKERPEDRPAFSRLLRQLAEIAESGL
Experimental: as §1

various enzymes [3] = molecular target: T2, various enzymes (Homo sapiens, UniProt Q96L34); settings: MARK4; 1 uM
T2 sequence (Q96L34 1-752): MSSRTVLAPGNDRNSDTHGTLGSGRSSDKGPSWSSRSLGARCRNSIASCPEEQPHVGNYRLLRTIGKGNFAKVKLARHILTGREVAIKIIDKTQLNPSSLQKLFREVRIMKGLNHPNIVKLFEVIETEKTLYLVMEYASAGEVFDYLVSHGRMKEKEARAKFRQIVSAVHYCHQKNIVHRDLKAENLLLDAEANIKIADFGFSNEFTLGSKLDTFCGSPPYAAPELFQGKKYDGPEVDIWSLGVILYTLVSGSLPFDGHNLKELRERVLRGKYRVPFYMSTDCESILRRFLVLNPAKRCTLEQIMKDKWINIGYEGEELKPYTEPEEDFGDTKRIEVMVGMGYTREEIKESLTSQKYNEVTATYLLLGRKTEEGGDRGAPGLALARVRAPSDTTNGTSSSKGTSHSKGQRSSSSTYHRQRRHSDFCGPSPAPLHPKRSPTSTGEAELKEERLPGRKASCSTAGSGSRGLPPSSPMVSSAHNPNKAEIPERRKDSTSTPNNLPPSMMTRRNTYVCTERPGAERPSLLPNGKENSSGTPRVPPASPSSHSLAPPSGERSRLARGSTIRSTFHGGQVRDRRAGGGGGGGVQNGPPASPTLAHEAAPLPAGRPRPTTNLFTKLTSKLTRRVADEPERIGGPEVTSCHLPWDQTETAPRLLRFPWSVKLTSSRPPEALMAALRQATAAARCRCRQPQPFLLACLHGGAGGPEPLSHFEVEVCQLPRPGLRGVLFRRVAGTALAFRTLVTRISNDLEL
Experimental: as §1

various enzymes [4] = molecular target: various enzymes (Homo sapiens, UniProt P24941); settings: CDK2; 1 uM
Experimental: as §1

various enzymes [5] = molecular target: various enzymes (Homo sapiens, UniProt P00533, L858R)
Experimental: as §1

various enzymes [6] = molecular target: various enzymes (Homo sapiens, UniProt Q9Y6M4); settings: CSNK1G3; 1 uM
Experimental: as §1

various enzymes [7] = molecular target: various enzymes (Homo sapiens, UniProt P45984); settings: JNK2; 1 uM
Experimental: as §1

various enzymes [8] = molecular target: various enzymes (Homo sapiens, UniProt O15075); settings: DCAMKL1; 1 uM
Experimental: as §1

various enzymes [9] = molecular target: various enzymes (Homo sapiens, UniProt Q16539); settings: p38-alpha; 1 uM
Experimental: as §1

various enzymes [10] = molecular target: various enzymes (Homo sapiens, UniProt O94804); settings: LOK; 1 uM
Experimental: as §1

various enzymes [11] = molecular target: various enzymes (Homo sapiens, UniProt P08581, Y1235D)
Experimental: as §1

various enzymes [12] = molecular target: various enzymes (Homo sapiens, UniProt P49336); settings: CDK8; 1 uM
Experimental: as §1

various enzymes [13] = molecular target: T3, various enzymes (Homo sapiens, UniProt O60285); settings: ARK5; 1 uM
T3 sequence (O60285 1-661): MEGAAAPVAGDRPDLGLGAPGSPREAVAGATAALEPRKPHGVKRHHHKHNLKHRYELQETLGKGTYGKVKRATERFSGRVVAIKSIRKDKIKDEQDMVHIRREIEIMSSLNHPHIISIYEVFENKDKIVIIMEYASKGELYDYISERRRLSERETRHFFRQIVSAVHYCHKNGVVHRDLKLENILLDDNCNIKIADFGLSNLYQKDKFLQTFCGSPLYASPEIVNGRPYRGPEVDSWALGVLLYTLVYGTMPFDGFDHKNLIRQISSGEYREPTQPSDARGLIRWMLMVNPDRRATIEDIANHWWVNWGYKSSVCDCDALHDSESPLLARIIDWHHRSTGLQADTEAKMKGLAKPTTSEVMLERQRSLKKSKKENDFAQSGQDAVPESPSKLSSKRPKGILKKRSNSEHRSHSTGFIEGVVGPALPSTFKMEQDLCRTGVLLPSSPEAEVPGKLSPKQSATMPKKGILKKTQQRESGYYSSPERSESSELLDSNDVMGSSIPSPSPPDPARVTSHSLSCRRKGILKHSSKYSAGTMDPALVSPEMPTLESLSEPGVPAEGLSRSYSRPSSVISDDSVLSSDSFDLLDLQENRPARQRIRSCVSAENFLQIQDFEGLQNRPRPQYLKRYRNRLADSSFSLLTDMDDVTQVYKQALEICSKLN
Experimental: as §1

Sequence of various enzymes (Homo sapiens, UniProt O15075) (O15075 whole entry): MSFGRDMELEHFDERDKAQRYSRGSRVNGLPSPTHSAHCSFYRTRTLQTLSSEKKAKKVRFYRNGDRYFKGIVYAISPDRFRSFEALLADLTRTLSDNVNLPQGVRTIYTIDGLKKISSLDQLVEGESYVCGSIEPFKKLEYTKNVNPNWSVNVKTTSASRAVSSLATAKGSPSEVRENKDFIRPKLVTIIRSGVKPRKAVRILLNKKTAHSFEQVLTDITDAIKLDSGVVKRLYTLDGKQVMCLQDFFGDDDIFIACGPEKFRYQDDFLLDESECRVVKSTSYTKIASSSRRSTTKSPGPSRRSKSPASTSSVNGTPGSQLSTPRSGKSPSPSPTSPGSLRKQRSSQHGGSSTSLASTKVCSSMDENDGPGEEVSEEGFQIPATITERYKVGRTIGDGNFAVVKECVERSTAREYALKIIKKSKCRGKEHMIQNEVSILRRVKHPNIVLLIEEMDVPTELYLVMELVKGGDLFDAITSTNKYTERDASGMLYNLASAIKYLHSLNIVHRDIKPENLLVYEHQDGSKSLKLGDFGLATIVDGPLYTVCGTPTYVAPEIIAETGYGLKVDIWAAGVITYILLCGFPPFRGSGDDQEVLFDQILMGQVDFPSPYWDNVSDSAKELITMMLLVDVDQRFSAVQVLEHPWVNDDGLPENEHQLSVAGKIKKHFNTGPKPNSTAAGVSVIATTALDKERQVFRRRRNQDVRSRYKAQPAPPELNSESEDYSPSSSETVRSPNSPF
Sequence of various enzymes (Homo sapiens, UniProt O94804) (O94804 whole entry): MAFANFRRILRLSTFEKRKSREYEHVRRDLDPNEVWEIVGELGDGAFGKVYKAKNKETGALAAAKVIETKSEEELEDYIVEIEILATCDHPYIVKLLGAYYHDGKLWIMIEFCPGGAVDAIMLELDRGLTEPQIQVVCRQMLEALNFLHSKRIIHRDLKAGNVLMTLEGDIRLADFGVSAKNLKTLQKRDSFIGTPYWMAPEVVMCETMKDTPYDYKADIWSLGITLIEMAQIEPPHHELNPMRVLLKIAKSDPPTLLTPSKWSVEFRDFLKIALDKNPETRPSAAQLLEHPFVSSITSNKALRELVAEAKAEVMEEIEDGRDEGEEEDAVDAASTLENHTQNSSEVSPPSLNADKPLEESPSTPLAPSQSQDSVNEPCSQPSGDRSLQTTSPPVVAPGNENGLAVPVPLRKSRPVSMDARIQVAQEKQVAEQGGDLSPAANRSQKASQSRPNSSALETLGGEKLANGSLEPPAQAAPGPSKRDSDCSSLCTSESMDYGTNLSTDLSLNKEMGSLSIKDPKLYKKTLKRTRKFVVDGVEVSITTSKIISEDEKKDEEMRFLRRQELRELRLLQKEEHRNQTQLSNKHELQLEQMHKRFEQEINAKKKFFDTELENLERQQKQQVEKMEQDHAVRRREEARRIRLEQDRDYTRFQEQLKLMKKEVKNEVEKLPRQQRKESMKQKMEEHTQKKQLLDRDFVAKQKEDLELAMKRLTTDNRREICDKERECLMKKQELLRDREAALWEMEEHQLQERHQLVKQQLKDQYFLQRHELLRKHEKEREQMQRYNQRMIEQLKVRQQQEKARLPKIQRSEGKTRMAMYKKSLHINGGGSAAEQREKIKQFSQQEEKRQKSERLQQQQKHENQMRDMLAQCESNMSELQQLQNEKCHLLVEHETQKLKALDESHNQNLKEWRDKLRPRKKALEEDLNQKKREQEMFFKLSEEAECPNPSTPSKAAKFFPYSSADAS
Sequence of various enzymes (Homo sapiens, UniProt P49336) (P49336 whole entry): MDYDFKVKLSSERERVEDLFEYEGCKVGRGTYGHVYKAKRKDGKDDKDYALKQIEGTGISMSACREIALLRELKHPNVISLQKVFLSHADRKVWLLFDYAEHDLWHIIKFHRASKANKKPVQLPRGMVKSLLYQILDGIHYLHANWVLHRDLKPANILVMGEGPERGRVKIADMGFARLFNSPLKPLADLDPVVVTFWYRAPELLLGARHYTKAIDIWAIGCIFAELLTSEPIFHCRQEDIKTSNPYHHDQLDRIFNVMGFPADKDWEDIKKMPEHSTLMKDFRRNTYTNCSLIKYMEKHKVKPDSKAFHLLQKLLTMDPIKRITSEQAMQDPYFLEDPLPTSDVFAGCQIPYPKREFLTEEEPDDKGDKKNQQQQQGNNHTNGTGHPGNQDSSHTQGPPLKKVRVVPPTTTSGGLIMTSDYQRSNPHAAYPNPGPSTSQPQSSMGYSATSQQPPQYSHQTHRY
Sequence of various enzymes (Homo sapiens, UniProt Q9Y6M4) (Q9Y6M4 whole entry): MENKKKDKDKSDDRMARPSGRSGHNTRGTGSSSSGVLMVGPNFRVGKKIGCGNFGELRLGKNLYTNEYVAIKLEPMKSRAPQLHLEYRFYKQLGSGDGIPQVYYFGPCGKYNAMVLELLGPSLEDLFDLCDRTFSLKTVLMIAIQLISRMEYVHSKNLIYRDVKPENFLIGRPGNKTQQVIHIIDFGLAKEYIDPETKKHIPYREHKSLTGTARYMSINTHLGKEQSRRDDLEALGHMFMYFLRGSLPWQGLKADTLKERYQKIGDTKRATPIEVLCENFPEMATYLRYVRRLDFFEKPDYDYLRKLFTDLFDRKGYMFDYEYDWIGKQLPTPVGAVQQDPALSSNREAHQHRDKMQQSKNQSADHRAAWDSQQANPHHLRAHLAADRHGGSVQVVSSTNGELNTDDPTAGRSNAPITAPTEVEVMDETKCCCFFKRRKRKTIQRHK
Sequence of various enzymes (Homo sapiens, UniProt Q16539) (Q16539 whole entry): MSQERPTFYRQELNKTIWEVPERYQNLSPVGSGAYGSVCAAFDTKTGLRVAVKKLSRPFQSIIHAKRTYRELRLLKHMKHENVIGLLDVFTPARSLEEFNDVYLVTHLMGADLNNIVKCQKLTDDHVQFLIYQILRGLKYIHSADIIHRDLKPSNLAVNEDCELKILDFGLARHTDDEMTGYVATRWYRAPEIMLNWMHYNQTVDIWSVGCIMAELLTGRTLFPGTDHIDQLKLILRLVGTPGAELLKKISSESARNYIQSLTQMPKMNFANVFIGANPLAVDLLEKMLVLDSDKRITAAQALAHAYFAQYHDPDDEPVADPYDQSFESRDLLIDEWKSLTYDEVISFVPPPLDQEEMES
Sequence of various enzymes (Homo sapiens, UniProt P45984) (P45984 whole entry): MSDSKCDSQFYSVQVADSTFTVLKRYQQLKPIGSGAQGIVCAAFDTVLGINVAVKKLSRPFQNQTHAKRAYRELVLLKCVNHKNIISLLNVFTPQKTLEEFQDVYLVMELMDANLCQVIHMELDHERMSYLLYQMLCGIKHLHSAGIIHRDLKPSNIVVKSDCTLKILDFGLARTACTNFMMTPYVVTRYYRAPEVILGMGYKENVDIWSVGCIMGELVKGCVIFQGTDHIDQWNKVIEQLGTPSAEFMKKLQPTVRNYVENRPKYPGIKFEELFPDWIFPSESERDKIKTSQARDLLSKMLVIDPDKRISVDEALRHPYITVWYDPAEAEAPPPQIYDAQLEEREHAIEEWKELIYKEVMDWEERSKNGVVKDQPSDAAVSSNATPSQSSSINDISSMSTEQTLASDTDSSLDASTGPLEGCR

| Structure (SMILES) | Ambit profiling (various enzymes [1]) | Ambit profiling (various enzymes [2]) | Ambit profiling (various enzymes [3]) | Ambit profiling (various enzymes [4]) | Ambit profiling (various enzymes [5]; EGFR(L856R), 1 uM) | Ambit profiling (various enzymes [6]) | Ambit profiling (various enzymes [7]) | Ambit profiling (various enzymes [8]) | Ambit profiling (various enzymes [9]) | Ambit profiling (various enzymes [10]) | Ambit profiling (various enzymes [11]; MET(Y12350), 1 uM) | Ambit profiling (various enzymes [12]) | Ambit profiling (various enzymes [13]) | Ambit profiling (various enzymes [5]) | Ambit profiling (various enzymes [11]) |
| --- | --- | --- | --- | --- | --- | --- | --- | --- | --- | --- | --- | --- | --- | --- | --- |
| CN1Cc2nn(C)cc2-c2cnc3[nH]cc(c3c2)-c2cnn(c2)CCCC1=O [Compound 41, (Z)-31,5-dimethyl-11H,21H,31H-5-aza-2(3,5)-pyrrolo[2,3-b]pyridina-1(4,1),3(4,3)-dipyrazolacyclononaphan-6-one] | 70 | 65 | 27 | 55 | 87 | 100 | 1.1 | 65 | 99 | 74 | 44 | 100 | 8.9 | – | – |
| CN1Cc2nn(C)c(C#N)c2-c2cnc3[nH]cc(c3c2)-c2cn(nc2C(F)(F)F)CCCC1=O [Compound 48, (Z)-31,5-dimethyl-6-oxo-13-(trifluoromethyl)-11H,21H,31H-5-aza-2(3,5)-pyrrolo[2,3-b]pyridina-1(4,1),3(4,3)-dipyrazolacyclononaphane-35-carbonitrile] | 68 | 100 | 92 | 91 | – | 98 | 8.1 | 92 | 95 | 52 | – | 100 | 100 | 63 | 51 |
